From PubChem BioAssay (NCI)
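1) Cells in 96-well plates. 2) Compound, 48 h, 5 concentrations. 3) Linear interpolation between surrounding doses. 4) Unreached endpoint = highest concentration. TGI marks complete inhibition of growth.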

Key:
Experiment in all cases: NCI anticancer screen, dose series, 48 h
DMS 273 small cell lung = test system: DMS 273 small cell lung
HCT-15 colon = test system: HCT-15 colon
HOP-18 NSCLC = test system: HOP-18 NSCLC
NCI-H522 lung = test system: NCI-H522 lung
OVCAR-3 ovarian = test system: OVCAR-3 ovarian
RXF 393 renal = test system: RXF 393 renal
SK-MEL-28 melanoma = test system: SK-MEL-28 melanoma
SNB-19 CNS = test system: SNB-19 CNS
TK-10 renal = test system: TK-10 renal
UO-31 renal = test system: UO-31 renal
XF 498 CNS = test system: XF 498 CNS
HS 578T breast = test system: HS 578T breast

Row | SMILES | TGI (DMS 273 small cell lung) [µM] | TGI (HCT-15 colon) [µM] | TGI (HOP-18 NSCLC) [µM] | TGI (NCI-H522 lung) [µM] | TGI (OVCAR-3 ovarian) [µM] | TGI (RXF 393 renal) [µM] | TGI (SK-MEL-28 melanoma) [µM] | TGI (SNB-19 CNS) [µM] | TGI (TK-10 renal) [µM] | TGI (UO-31 renal) [µM] | TGI (XF 498 CNS) [µM] | TGI (HS 578T breast) [µM]
1 | CCOC(=O)/C=C1/C(CCCOCc2ccccc2)C2CCCC23CC2(CCN13)OCCO2 (configuration not stated) | 37.9 | 51.5 | 50 | 31.3 | 49.4 | 37.5 | 51.3 | > 100 | > 100 | 64.5 | 26.8 | 
2 | Nc1ncnc2c1ccn2C/C=C/CO |  | > 100 |  | > 100 | > 100 | > 100 | > 100 | > 100 | > 100 | > 100 |  | > 100
3 | CC(C)(C)OC(=O)NC(CSSCC(NC(=O)OC(C)(C)C)C(=O)O)C(=O)O (configuration not stated) |  | > 100 |  | > 100 | > 100 | > 100 | > 100 | > 100 | > 100 | > 100 |  | > 100
4 | CCCCOCCOC1=C(Cl)C(=O)c2c(O)ccc(O)c2C1=O |  | 0.331 |  | 1.33 | 1.63 | 0.668 | 1.23 | 1.82 | 1.81 | 1.72 |  | 5.43
5 | Nc1c(S(=O)(=O)c2ccc(Cl)cc2)c2nc3ccccc3nc2n2ccnc12 | > 100 | > 100 | 79.3 | > 100 | > 100 |  | > 100 | > 100 | 78.2 | > 100 | > 100 | 
6 | O=C(O)C(O)C(O)C(O)C(O)CO (configuration not stated) |  | > 100 |  | > 100 | > 100 | > 100 | > 100 | > 100 | > 100 | > 100 |  | > 100
7 | CN1Cc2c(nc(-c3ccccc3)c[n+]2[O-])N(C)C1 | > 100 | > 100 | > 100 | > 100 | > 100 |  | > 100 | > 100 | > 100 | > 100 | > 100 | 
8 | COc1ccc(CC(N)=O)cc1OC | > 1250 | > 1250 | > 1250 | > 1250 | > 1250 | > 1250 | > 1250 | > 1250 |  | > 1250 | > 1250 | 
